In assay [1] the target is acetylcholinesterase (AChE) (Homo sapiens, UniProt P22303). Description: biochemical. Particulars: for IC50: read-out: AChE IC50 (µM ± SEM). It counts as biochemical. The protocol: (§1) The AChE/(BuChE) inhibitory test was measured using a spectrophotometric method developed by Elman et al.. A buffer solution containing phosphate (pH 8.0) of volume 140 μL; 20 μL of each AChE/BuChE solution; and 20 μL of the test sample were incubated at room temperature for 15 min. […] was used to start the reaction, followed by the addition of DTNB. ATCh or BTCh hydrolyzed the reaction of DTNB with thiocholine for 15 min; unrestricted by AChE and BuChE enzymatic hydrolysis. […] Each sample’s inhibitory activity was measured in terms of IC50 ([…]) or μM. For all substances, the IC50 values were derived using a generic graph.
Sequence of acetylcholinesterase (AChE) (P22303 32-614, species assumed): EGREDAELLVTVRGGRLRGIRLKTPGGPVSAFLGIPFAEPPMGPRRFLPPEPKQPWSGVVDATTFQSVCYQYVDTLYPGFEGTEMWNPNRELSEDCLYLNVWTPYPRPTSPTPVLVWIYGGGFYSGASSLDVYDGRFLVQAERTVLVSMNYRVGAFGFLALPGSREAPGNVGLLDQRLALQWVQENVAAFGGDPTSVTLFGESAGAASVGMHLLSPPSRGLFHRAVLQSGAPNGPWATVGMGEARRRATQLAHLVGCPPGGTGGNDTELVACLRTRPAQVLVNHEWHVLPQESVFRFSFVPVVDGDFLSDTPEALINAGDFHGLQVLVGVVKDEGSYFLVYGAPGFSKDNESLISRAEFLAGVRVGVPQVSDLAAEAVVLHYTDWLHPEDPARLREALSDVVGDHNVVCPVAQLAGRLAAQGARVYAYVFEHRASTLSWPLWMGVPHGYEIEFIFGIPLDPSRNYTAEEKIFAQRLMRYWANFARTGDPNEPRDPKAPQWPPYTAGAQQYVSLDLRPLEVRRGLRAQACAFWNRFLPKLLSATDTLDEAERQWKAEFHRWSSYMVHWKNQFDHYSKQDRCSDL

In assay [2] the target is butyrylcholinesterase (BuChE) (Homo sapiens, UniProt P06276). Kind of assay: biochemical. In kind it is biochemical. Particulars: for IC50: read-out: BuChE IC50 (µM ± SEM). The protocol: as §1
Sequence of butyrylcholinesterase (BuChE) (P06276 29-602): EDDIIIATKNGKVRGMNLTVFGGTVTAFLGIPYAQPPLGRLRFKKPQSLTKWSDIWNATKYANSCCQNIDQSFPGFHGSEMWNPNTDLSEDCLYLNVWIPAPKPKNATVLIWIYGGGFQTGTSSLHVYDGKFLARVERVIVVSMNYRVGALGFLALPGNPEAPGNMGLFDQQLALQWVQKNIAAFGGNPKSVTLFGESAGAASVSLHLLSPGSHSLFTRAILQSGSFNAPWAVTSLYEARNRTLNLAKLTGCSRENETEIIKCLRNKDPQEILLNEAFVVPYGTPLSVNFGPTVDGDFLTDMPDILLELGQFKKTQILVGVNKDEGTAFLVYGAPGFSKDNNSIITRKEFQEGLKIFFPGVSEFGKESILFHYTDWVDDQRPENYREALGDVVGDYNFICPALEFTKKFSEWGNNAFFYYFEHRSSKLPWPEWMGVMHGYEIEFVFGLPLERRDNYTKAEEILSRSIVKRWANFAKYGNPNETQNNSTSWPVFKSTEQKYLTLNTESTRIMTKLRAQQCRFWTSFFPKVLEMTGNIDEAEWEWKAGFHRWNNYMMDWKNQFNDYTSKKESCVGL

The source of these data is paper PMC9958709 (Pharmaceuticals, 2023).

Broadly, the IC50 is the midpoint of a concentration-inhibition curve.

Each structure is given as a SMILES string.

On to `COc1ccc2[nH]c(-c3ccc([N+](=O)[O-])cc3)nc2c1` [Compound 1, 5-Methoxy-2-(4-Nitrophenyl)-1H-Benzo[d]-Imidazole], for which the figures for the IC50 in assay [1] and in assay [2] were 2.1 ± 0.1 µM and 1.6 ± 0.1 µM, respectively.

For `COc1ccc2[nH]c(-c3cccc([N+](=O)[O-])c3)nc2c1` [Compound 2, 5-Methoxy-2-(3-Nitrophenyl)-1H-Benzo[d]-Imidazole], the values for the IC50 in assay [1] and in assay [2] were 5.1 ± 0.1 µM and 5.9 ± 0.1 µM, respectively.

With `COc1ccc2[nH]c(-c3ccc(Cl)c(Cl)c3)nc2c1` [Compound 3], the IC50 came to 0.05 ± 0.001 µM in assay [1] and 0.08 ± 0.001 µM in assay [2].

On to `COc1ccc2[nH]c(-c3ccccc3[N+](=O)[O-])nc2c1` [Compound 4], for which the IC50 turned out to be 3.4 ± 0.1 µM in assay [1] and 3.6 ± 0.1 µM in assay [2].

In the case of `COc1ccc2[nH]c(-c3ccc4ccccc4c3)nc2c1` [Compound 5], the IC50 in assay [1] is 25.3 ± 0.4 µM; in assay [2] it was 25.8 ± 0.4 µM.

For the molecule `COc1ccc2[nH]c(-c3ccc(C)cc3C)nc2c1` [Compound 6], the IC50 in assay [1] worked out at 4.1 ± 0.1 µM; in assay [2] it was 5.1 ± 0.2 µM.

On to `COc1ccc2[nH]c(-c3ccc(OCc4ccccc4)cc3)nc2c1` [Compound 7], for which the IC50 in assay [1] turned out to be 5.8 ± 0.1 µM; in assay [2] it was 5.9 ± 0.1 µM.

`COc1ccc2[nH]c(-c3ccc(N(C)C)cc3)nc2c1` [Compound 8]: the IC50 in assay [1] stood at 6.8 ± 0.2 µM; in assay [2], 4.7 ± 0.1 µM.

`COc1ccc2[nH]c(-c3ccc(OC)c(O)c3)nc2c1` [Compound 9]: the IC50 in assay [1] amounted to 2.3 ± 0.1 µM; in assay [2], 2.1 ± 0.1 µM.

For `COc1ccc2[nH]c(-c3cc(Cl)cc(Cl)c3O)nc2c1` [Compound 10], the half-maximal inhibitory concentration (IC50) amounted to 0.1 ± 0.001 µM in assay [1] and 0.4 ± 0.001 µM in assay [2].

Regarding `COc1ccc2[nH]c(-c3ccc(Cl)cc3Cl)nc2c1` [Compound 11], the IC50 in assay [1] was determined as 0.2 ± 0.001 µM; in assay [2], 0.3 ± 0.001 µM.

Regarding `COc1ccc2nc(-c3ccc(-c4nc5ccc(OC)cc5[nH]4)cc3)[nH]c2c1` [Compound 12], the IC50 in assay [1] came out at 5.1 ± 0.1 µM; in assay [2], 5.8 ± 0.1 µM.

As for `COc1ccc2[nH]c(-c3c4ccccc4cc4ccccc34)nc2c1` [Compound 13], the “inhibition of acetylcholinesterase, in words” value in assay [1] is given as “did not show any activity”. Moreover, in assay [2], the “inhibition of butyrylcholinesterase, in words” value is reported as “did not show any activity”.

In the case of `COc1ccc2[nH]c(-c3c(O)ccc4ccccc34)nc2c1` [Compound 14], in assay [1], the “inhibition of acetylcholinesterase, in words” value was “did not show any activity”. The “inhibition of butyrylcholinesterase, in words” value in assay [2] is listed as “did not show any activity”.

Take `COc1ccc2[nH]c(-c3ccc(O)cc3)nc2c1` [Compound 15]: the values for the IC50 in assay [1] and in assay [2] were 0.8 ± 0.001 µM and 0.9 ± 0.001 µM, respectively.

With `COc1ccc2[nH]c(-c3cccc(O)c3)nc2c1` [Compound 16], the IC50 in assay [1] was determined as 1.3 ± 0.1 µM; in assay [2], 2.1 ± 0.1 µM.

For the molecule `COc1ccc2[nH]c(-c3cc(Br)ccc3OC)nc2c1` [Compound 17], the results for the IC50 in assay [1] and in assay [2] were 6.1 ± 0.1 µM and 3.9 ± 0.1 µM, respectively.

In the case of `CCOc1ccc(-c2nc3cc(OC)ccc3[nH]2)cc1OC` [Compound 18], the figures for the IC50 in assay [1] and in assay [2] were 11.3 ± 0.3 µM and 9.8 ± 0.3 µM, respectively.

In the case of `COc1ccc(-c2nc3cc(OC)ccc3[nH]2)c(OC)c1` [Compound 19], the IC50 worked out at 9.2 ± 0.2 µM in assay [1] and 6.8 ± 0.2 µM in assay [2].

`COc1ccc2[nH]c(-c3cc(OC)c(Br)cc3OC)nc2c1` [Compound 20]: the “inhibition of acetylcholinesterase, in words” value in assay [1] was “did not show any activity”. Further, the “inhibition of butyrylcholinesterase, in words” value in assay [2] is listed as “did not show any activity”.

In the case of `COc1ccc2[nH]c(-c3cc(OC)c(O)c(OC)c3)nc2c1` [Compound 21], the IC50 is 2.1 ± 0.1 µM in assay [1] and 2.7 ± 0.1 µM in assay [2].
